PubChem BioAssay (NCI)
“And” between values parts separate entries of the source, which are not always exact repeats. Identical values can stand only once.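 Growth conditions: 96-well plates. Treatment: test compound, 48 hours, 5 concentrations. Analysis: linear interpolation between bracketing concentrations; unreached endpoints set to highest concentration. GI50 is the concentration that inhibits growth by half. TGI marks complete inhibition of growth.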 Where a SMILES comes first, the peptide text is derived from it. [ ]: non-standard residue; d: D form.

Legend:
Assay in all cases: inhibition of tumour cell growth, NCI panel, 48 h
A498 renal = tested on: A498 renal
HCC-2998 colon = tested on: HCC-2998 colon
HCT-116 colon = tested on: HCT-116 colon
LOX IMVI melanoma = tested on: LOX IMVI melanoma
M14 melanoma = tested on: M14 melanoma
MDA-MB-435 = tested on: MDA-MB-435
MOLT-4 leukemia = tested on: MOLT-4 leukemia
RXF 393 renal = tested on: RXF 393 renal
SN12C renal = tested on: SN12C renal
SW-620 colon = tested on: SW-620 colon

| SMILES | GI50 (A498 renal) | TGI (A498 renal) | GI50 (HCC-2998 colon) | TGI (HCC-2998 colon) | GI50 (HCT-116 colon) | TGI (HCT-116 colon) | GI50 (LOX IMVI melanoma) | TGI (LOX IMVI melanoma) | GI50 (M14 melanoma) | TGI (M14 melanoma) | GI50 (MDA-MB-435) | TGI (MDA-MB-435) | GI50 (MOLT-4 leukemia) | TGI (MOLT-4 leukemia) | GI50 (RXF 393 renal) | TGI (RXF 393 renal) | GI50 (SN12C renal) | TGI (SN12C renal) | GI50 (SW-620 colon) | TGI (SW-620 colon) |
| --- | --- | --- | --- | --- | --- | --- | --- | --- | --- | --- | --- | --- | --- | --- | --- | --- | --- | --- | --- | --- |
| CS(=O)(=O)CCNCc1ccoc1-c1ccc2ncnc(Nc3ccc(OCc4ccccc4)cc3)c2c1 | 20.5 µM | > 25 µM | > 25 µM | > 25 µM | > 25 µM | > 25 µM | > 25 µM | > 25 µM | > 25 µM | > 25 µM | > 25 µM | > 25 µM | 20.1 µM | > 25 µM | 7.25 µM | > 25 µM | > 25 µM | > 25 µM | > 25 µM | > 25 µM |
| CCOC(=O)N(O)c1ccc(/C=C/c2ccccc2)cc1 | 0.146 µM | 0.291 µM | 7.03 µM | 21.3 µM | 0.407 µM | 10.5 µM | 7.22 µM | 20.6 µM | 7.17 µM | 26.8 µM | 11 µM | 48.6 µM | 11 µM | 51.3 µM | 13.2 µM | > 90.4 µM | 14.7 µM | > 100 µM | 5.3 µM | 25.1 µM |
| CC[C@@H](C(=O)[C@@H](C)[C@@H](O)[C@H](C)[C@@H]1O[C@@H]([C@@H](CC)C(=O)O)CC[C@@H]1C)[C@H]1O[C@]2(C=C[C@@H](O)[C@]3(CC[C@@](C)([C@H]4CC[C@](O)(CC)[C@H](C)O4)O3)O2)[C@H](C)C[C@@H]1C | 0.0567 µM | 0.821 µM | 0.166 µM | 13 µM | 0.63 µM | 30.2 µM | 0.596 µM | 12.9 µM | 1.39 µM | 3.05 µM | 1.08 µM | 2.72 µM | 0.911 µM | 5.17 µM | 0.114 µM | 2.64 µM | 0.226 µM | 44.8 µM | 1.56 µM | 12.6 µM |
| CNc1nc(-c2ccc3c(N)n[nH]c3c2)cc(N2C[C@@H](C(=O)NC3CCCCC3)CC[C@H]2C)n1 | 0.301 µM | 3.02 µM | 8.53 µM | 21.7 µM | 4.4 µM | 18.8 µM | 3.8 µM | 19.4 µM | 3.02 µM | 20.1 µM | 1.11 µM | 14.4 µM | 1.84 µM | > 32.5 µM | 1.31 µM | 8.78 µM | 3.04 µM | 20.2 µM | 6.85 µM | 23.4 µM |
| COc1cc2c(=O)n(CC3CCCCC3)c3c4cc[nH]c4ncc3c2cc1OC | 0.086 µM | 3.06 µM | 18.7 µM | > 50 µM | 1.01 µM | 12.3 µM | 2.3 µM | 14.3 µM | 4.3 µM | > 50 µM | 4.15 µM | > 50 µM | 5.64 µM | > 50 µM | 0.407 µM | 5.55 µM | 1.46 µM | 11.6 µM | 2 µM | 14.6 µM |
| N#Cc1cc2c(cc1Cl)SC(=Nc1ccccc1)N(S(=O)(=O)c1ccc(Br)s1)S2(=O)=O | 21.9 µM | 38 µM | 14.7 µM | 30.8 µM | 15.9 µM | 33.7 µM | 18.8 µM | 43.6 µM | 14.8 µM | 30.6 µM | 16.1 µM | 33.9 µM | 15.9 µM | 46.2 µM | 15.1 µM | 45.1 µM | 24 µM | 49.6 µM | 18.9 µM | 40 µM |
| CC(=O)OC1=C(CC(C)(C)C)C(=O)c2ccccc2C1=O | – | 48.3 µM | – | > 100 µM | – | 75.5 µM | – | > 100 µM | – | > 100 µM | – | 60.8 µM | – | – | – | 82.7 µM | – | – | – | > 100 µM |
| CCSc1nc(N)c2cnn(CC)c2n1 | 3.7 µM | 22.8 µM | – | – | 5.94 µM | 32.8 µM | 2.23 µM | 8 µM | 15.1 µM | 30.5 µM | 7.64 µM | 37.8 µM | 3.99 µM | > 100 µM | 2.98 µM | 7.14 µM | 4.12 µM | 26.1 µM | 3.8 µM | 18.2 µM |
| CCCCCCCCc1cc(O)ccc1O | 15.3 µM | 36 µM | 18.4 µM | 34.4 µM | 14.7 µM | 27.9 µM | 12.8 µM | 25.8 µM | – | – | 19.5 µM | 49.7 µM | 17.3 µM | 72.8 µM | 10.7 µM | 24.9 µM | 14.3 µM | 27.4 µM | 21.6 µM | 46.1 µM |
| Cc1c2ccccc2c(C)n2c1nc1cc(Cl)c(Cl)cc12 | > 100 µM | > 100 µM | > 100 µM | > 100 µM | 18.6 µM | > 100 µM | 25.2 µM | > 100 µM | > 100 µM | > 100 µM | > 100 µM | > 100 µM | 16 µM | 8.62 µM and 46.5 µM | > 100 µM | > 100 µM | > 100 µM | > 100 µM | 74.1 µM | > 100 µM |
| CSCC[C@H](NC(=O)[C@@H](N)CC(N)=O)C(=O)N[C@@H](Cc1c[nH]c2ccccc12)C(=O)N[C@@H](CCC(N)=O)C(=O)N[C@@H](CCC(=O)O)C(=O)N[C@H](C(=O)NCC(=O)N[C@@H](CCCCN)C(=O)N[C@H](C)C(=O)O)C(C)C (H-NMWQEVGK[dA]-OH) | – | > 100 µM | – | > 100 µM | – | > 100 µM | – | > 100 µM | – | > 100 µM | – | > 100 µM | – | > 100 µM | – | > 100 µM | – | > 100 µM | – | > 100 µM |
| COc1ccc(/C=C2/CSC/C(=C/c3ccc(OC)c(OC)c3)C2=O)cc1OC | – | 15.3 µM | – | 6.28 µM | – | 2.28 µM | – | 2.62 µM | – | 10.5 µM | – | > 100 µM | – | > 20.9 µM | – | 8.62 µM | – | 4.13 µM | – | 3.63 µM |
| CN(C)CCOc1ccc2c(c1)C(=O)/C(=C\c1ncc([N+](=O)[O-])n1C)C2 | 0.307 µM | 0.931 µM | 0.507 µM | 1.75 µM | 0.316 µM | 1.28 µM | 0.331 µM | 1.85 µM | 0.543 µM | 1.83 µM | 0.209 µM | 0.643 µM | 0.358 µM | 1.65 µM | 0.316 µM | 1.25 µM | 1.12 µM | 5.21 µM | 0.474 µM | 4.22 µM |
